In the experiment the target is T1, Dopamine beta hydroxylase (Homo sapiens, UniProt P09172).
T1 construct: 125 μl of plasma; tissue Instituto Português do Sangue Transplantação; host or cells: human plasma from healthy donors
T1 sequence (P09172 40-617 limits assumed): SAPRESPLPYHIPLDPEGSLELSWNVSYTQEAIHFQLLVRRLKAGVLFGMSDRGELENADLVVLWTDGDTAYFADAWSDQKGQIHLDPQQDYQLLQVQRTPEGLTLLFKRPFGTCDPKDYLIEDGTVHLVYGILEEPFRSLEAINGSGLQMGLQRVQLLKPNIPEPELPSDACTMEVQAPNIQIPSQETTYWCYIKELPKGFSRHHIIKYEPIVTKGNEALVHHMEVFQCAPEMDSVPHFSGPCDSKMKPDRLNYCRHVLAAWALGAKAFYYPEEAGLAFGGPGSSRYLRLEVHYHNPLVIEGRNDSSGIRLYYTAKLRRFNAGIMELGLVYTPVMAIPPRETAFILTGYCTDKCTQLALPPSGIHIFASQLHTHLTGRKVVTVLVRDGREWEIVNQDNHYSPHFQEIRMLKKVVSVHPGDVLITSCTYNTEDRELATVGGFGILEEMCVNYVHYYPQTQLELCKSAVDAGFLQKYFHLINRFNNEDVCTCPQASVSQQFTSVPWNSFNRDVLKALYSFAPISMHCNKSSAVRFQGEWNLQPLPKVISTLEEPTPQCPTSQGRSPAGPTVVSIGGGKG
Kind of experiment: Dopamine beta hydroxylase activity in human plasma. Type of experiment: biochemical. To be noted: for Plasma (0.01 μM), activity in % of control: inhibitor 0.01 μM; for Plasma (0.1 μM), activity in % of control: inhibitor 0.1 μM; for Plasma (1 μM), activity in % of control: inhibitor 1 μM. In short, it runs like this: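 Octopamine production from tyramine over 45 min at 37° C, measured photometrically at 330 nm after SCX extraction and periodate oxidation against an octopamine standard curve, indicates plasma DβH activity. Compounds tested at final 10, 100 and 1000 nM in human plasma, pH 5.0 cofactor buffer, 10 min preincubation; results as % of control.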

Structures are written as SMILES.

With `CN1CC(NC(=O)Cc2c3n(c(=S)n2C)C[C@@H](c2c(F)ccc(F)c2F)C3)CCC1=O` (stereo partly drawn) [Example 371, 2-((R)-2-methyl-3-thioxo-6-(2,3,6-trifluorophenyl)-2,5,6,7-tetrahydro-3H-pyrrolo[1,2-c]imidazol-1-yl)-N-(1-methyl-6-oxopiperidin-3-yl)acetamide], the “Plasma (0.01 μM), activity in % of control” value was 79.0 % of control and the “Plasma (0.1 μM), activity in % of control” value was 17.7 % of control.

In the case of `CN(C)C(=O)Cc1[nH]c(=S)n2c1[C@@H]1C[C@]1(c1cc(F)cc(Cl)c1)C2` [Example 69, 2-((5aS,6aR)-5a-(3-chloro-5-fluorophenyl)-3-thioxo-2,3,5,5a,6,6a-hexahydrocyclopropa[3,4]pyrrolo[1,2-c]imidazol-1-yl)-N,N-dimethylacetamide], the “Plasma (0.1 μM), activity in % of control” value was 82.1 % of control and the “Plasma (1 μM), activity in % of control” value is reported as 24.1 % of control.

As for `Cl.Fc1ccc(F)c([C@H]2Cc3c(CCNCC4CCOCC4)[nH]c(=S)n3C2)c1F` [Example 473, (R)-1-(2-(((tetrahydro-2H-pyran-4-yl)methyl)amino)ethyl)-6-(2,3,6-trifluorophenyl)-2,5,6,7-tetrahydro-3H-pyrrolo[1,2-c]imidazole-3-thione hydrochloride], the “Plasma (0.01 μM), activity in % of control” value is on record as 98.9 % of control and the “Plasma (0.1 μM), activity in % of control” value is reported as 46.2 % of control.

As to `CCOC(=O)Cc1[nH]c(=S)n2c1C[C@@H](c1c(F)ccc(Br)c1F)C2` [Example 59, ethyl (S)-2-(6-(3-bromo-2,6-difluorophenyl)-3-thioxo-2,5,6,7-tetrahydro-3H-pyrrolo[1,2-c]imidazol-1-yl)acetate], the “Plasma (0.1 μM), activity in % of control” value is 20.8 % of control and the “Plasma (1 μM), activity in % of control” value is 4.1 % of control.

As for `CN(C(=O)Cc1[nH]c(=S)n2c1C[C@H](c1c(F)ccc(F)c1F)C2)C1CCOCC1` [Example 379, (R)—N-methyl-2-(6-(2,3,6-trifluorophenyl)-3-thioxo-2,5,6,7-tetrahydro-3H-pyrrolo[1,2-c]imidazol-1-yl)-N-(tetrahydro-2H-pyran-4-yl)acetamide], the “Plasma (0.01 μM), activity in % of control” value is 108.7 % of control and the “Plasma (0.1 μM), activity in % of control” value is on record as 50.1 % of control.

On to `O=C(CCc1[nH]c(=S)n2c1C[C@H](c1c(F)c(F)cc(F)c1F)C2)N1CCCC1` [Example 204, (R)-1-(pyrrolidin-1-yl)-3-(6-(2,3,5,6-tetrafluorophenyl)-3-thioxo-2,5,6,7-tetrahydro-3H-pyrrolo[1,2-c]imidazol-1-yl)propan-1-one], for which the “Plasma (0.01 μM), activity in % of control” value is 26.5 % of control and the “Plasma (0.1 μM), activity in % of control” value is on record as 1.1 % of control.

As to `O=C(Cc1[nH]c(=S)n2c1C[C@@H](c1c(F)ccc(Br)c1F)C2)N1CCCC1` [Example 101, (S)-2-(6-(3-bromo-2,6-difluorophenyl)-3-thioxo-2,5,6,7-tetrahydro-3H-pyrrolo[1,2-c]imidazol-1-yl)-1-(pyrrolidin-1-yl)ethan-1-one], the “Plasma (0.1 μM), activity in % of control” value is recorded as 37.2 % of control and the “Plasma (1 μM), activity in % of control” value is 3.3 % of control.

In the case of `CN(Cc1cccnc1)C(=O)Cc1[nH]c(=S)n2c1C[C@@H](c1c(F)ccc(Cl)c1F)C2` [Example 134, (S)-2-(6-(3-chloro-2,6-difluorophenyl)-3-thioxo-2,5,6,7-tetrahydro-3H-pyrrolo[1,2-c]imidazol-1-yl)-N-methyl-N-(pyridin-3-ylmethyl)acetamide], the “Plasma (0.01 μM), activity in % of control” value was 24.9 % of control and the “Plasma (0.1 μM), activity in % of control” value is reported as 3.2 % of control.

With `N#CCNC(=O)Cc1[nH]c(=S)n2c1[C@@H]1C[C@]1(c1cc(Br)ccc1F)C2` [Example 144, 2-((5aS,6aR)-5a-(5-bromo-2-fluorophenyl)-3-thioxo-2,3,5,5a,6,6a-hexahydrocyclopropa[3,4]pyrrolo[1,2-c]imidazol-1-yl)-N-(cyanomethyl)acetamide], the “Plasma (0.1 μM), activity in % of control” value is given as 14.7 % of control and the “Plasma (1 μM), activity in % of control” value is 0.1 % of control.

Take `O=C(Cc1[nH]c(=S)n2c1[C@@H]1C[C@]1(c1c(F)ccc(Cl)c1F)C2)N[C@@H]1CCOC1` [Example 392, 2-((5aS,6aR)-5a-(3-chloro-2,6-difluorophenyl)-3-thioxo-2,3,5,5a,6,6a-hexahydrocyclopropa[3,4]pyrrolo[1,2-c]imidazol-1-yl)-N—((R)-tetrahydrofuran-3-yl)acetamide]: the “Plasma (0.01 μM), activity in % of control” value is recorded as 62.3 % of control and the “Plasma (0.1 μM), activity in % of control” value was 13.2 % of control.

For the compound `O=C(Cc1[nH]c(=S)n2c1C[C@H](c1cc(Cl)ccc1F)C2)N[C@@H]1CCOC1` [Example 75, 2-((R)-6-(5-chloro-2-fluorophenyl)-3-thioxo-2,5,6,7-tetrahydro-3H-pyrrolo[1,2-c]imidazol-1-yl)-N—((R)-tetrahydrofuran-3-yl)acetamide], the “Plasma (0.1 μM), activity in % of control” value was 91.0 % of control and the “Plasma (1 μM), activity in % of control” value is reported as 56.3 % of control.

Take `Cn1c(CC(=O)N[C@H]2CCOC2)c2n(c1=S)C[C@@]1(c3c(F)ccc(Cl)c3F)C[C@@H]21` [Example 418, 2-((5aS,6aR)-5a-(3-chloro-2,6-difluorophenyl)-2-methyl-3-thioxo-2,3,5,5a,6,6a-hexahydrocyclopropa[3,4]pyrrolo[1,2-c]imidazol-1-yl)-N—((S)-tetrahydrofuran-3-yl)acetamide]: the “Plasma (0.01 μM), activity in % of control” value is reported as 27.7 % of control and the “Plasma (0.1 μM), activity in % of control” value is reported as 3.0 % of control.

With `Cn1c(CC(=O)N[C@H]2CCOC2)c2n(c1=S)C[C@H](c1c(F)ccc(Cl)c1F)C2` [Example 385, 2-((S)-6-(3-chloro-2,6-difluorophenyl)-2-methyl-3-thioxo-2,5,6,7-tetrahydro-3H-pyrrolo[1,2-c]imidazol-1-yl)-N—((S)-tetrahydrofuran-3-yl)acetamide], the “Plasma (0.01 μM), activity in % of control” value is recorded as 68.1 % of control and the “Plasma (0.1 μM), activity in % of control” value is listed as 19.3 % of control.

For `Cn1c(CC(=O)N2CCNCC2)c2n(c1=S)C[C@@]1(c3cc(Cl)ccc3F)C[C@@H]21` [Example 320, 2-((5aS,6aR)-5a-(5-chloro-2-fluorophenyl)-2-methyl-3-thioxo-2,3,5,5a,6,6a-hexahydrocyclopropa[3,4]pyrrolo[1,2-c]imidazol-1-yl)-1-(piperazin-1-yl)ethan-1-one], the “Plasma (0.01 μM), activity in % of control” value is on record as 90.3 % of control and the “Plasma (0.1 μM), activity in % of control” value is reported as 31.1 % of control.

In the case of `Cn1c(CC(=O)N2CCC[C@H]2CF)c2n(c1=S)C[C@@H](c1c(F)ccc(F)c1F)C2` [Example 296, 1-((S)-2-(fluoromethyl)pyrrolidin-1-yl)-2-((R)-2-methyl-3-thioxo-6-(2,3,6-trifluorophenyl)-2,5,6,7-tetrahydro-3H-pyrrolo[1,2-c]imidazol-1-yl)ethan-1-one], the “Plasma (0.01 μM), activity in % of control” value was 89.2 % of control and the “Plasma (0.1 μM), activity in % of control” value is 74.5 % of control.

Consider `O=C(Cc1[nH]c(=S)n2c1C[C@H](c1c(F)c(F)cc(F)c1F)C2)N[C@@H]1CCCOC1` [Example 386, N—((R)-tetrahydro-2H-pyran-3-yl)-2-((R)-3-thioxo-6-(2,3,5,6-tetrafluorophenyl)-2,5,6,7-tetrahydro-3H-pyrrolo[1,2-c]imidazol-1-yl)acetamide], for which the “Plasma (0.01 μM), activity in % of control” value is recorded as 101.8 % of control and the “Plasma (0.1 μM), activity in % of control” value is recorded as 79.4 % of control.

As to `Cn1c(CC(=O)NCC2CCOCC2)c2n(c1=S)C[C@H](c1cc(F)cc(F)c1)C2` [Example 428, (S)-2-(6-(3,5-difluorophenyl)-2-methyl-3-thioxo-2,5,6,7-tetrahydro-3H-pyrrolo[1,2-c]imidazol-1-yl)-N-((tetrahydro-2H-pyran-4-yl)methyl)acetamide], the “Plasma (0.01 μM), activity in % of control” value was 68.2 % of control and the “Plasma (0.1 μM), activity in % of control” value is given as 32.3 % of control.

`CCOC(=O)Cc1[nH]c(=S)n2c1C[C@@H](c1cc(Br)ccc1F)C2` [Example 62, Ethyl (S)-2-(6-(5-bromo-2-fluorophenyl)-3-thioxo-2,5,6,7-tetrahydro-3H-pyrrolo[1,2-c]imidazol-1-yl)acetate]: the “Plasma (0.1 μM), activity in % of control” value was 66.4 % of control and the “Plasma (1 μM), activity in % of control” value is listed as 10.9 % of control.

Regarding `O=C(Cc1[nH]c(=S)n2c1[C@@H]1C[C@]1(c1cc(Br)ccc1F)C2)N1CCN(c2ccccn2)CC1` [Example 147, 2-((5aS,6aR)-5a-(5-bromo-2-fluorophenyl)-3-thioxo-2,3,5,5a,6,6a-hexahydrocyclopropa[3,4]pyrrolo[1,2-c]imidazol-1-yl)-1-(4-(pyridin-2-yl)piperazin-1-yl)ethan-1-one], the “Plasma (0.1 μM), activity in % of control” value was 29.0 % of control and the “Plasma (1 μM), activity in % of control” value is 2.4 % of control.
